EC50 data for two compounds are collected here from patent publication US20140235617A1, “Combinations of Hepatitis C Virus Inhibitors” (BRISTOL-MYERS SQUIBB COMPANY, priority 2010, published 2014).

In this assay the test system is genotype Ib HCV replicon. The assay can be described thus: HCV replicon luciferase assay, monotherapy and triple combination studies. It counts as cell-based. As to conditions: monotherapy, 3 days, Expt 1-3. From the text:
The HCV replicons used in these studies were generated at Bristol-Myers Squibb using the procedure described in WO2004014852. […] The functional replicon was then assembled in plasmid pGem9zf(+) (Promega, Madison, Wis.) using standard molecular biology techniques. To create a replicon encoding a luciferase reporter, the gene encoding humanized Renilla Luciferase protein was introduced upstream of the neomycin phosphotransferase gene.
HCV replicon cell lines were isolated from colonies as described by Lohman, et. al (Lohmann, V., F. Korner, J.-O. Koch, U. Herian, L. Theilmann, and R. Bartenschlager 1999, Science 285:110-113) and used for all experiments. Briefly, replicon clones were linearized with ScaI and RNA transcripts synthesized in vitro using the T7 MegaScript transcription kit (Ambion, Austin, Tex.) according to manufacturer's directions. […] After 24 h, selective media containing 0.5 mg/mL Geneticin (G418, Gibco-BRL, Rockville, Md.) was added and media was changed every 3 to 5 days. After approximately 4 weeks, cells were expanded for further analysis. Cells were maintained at 37° C. in DMEM (Gibco-BRL, Rockville, Md.) with 10% heat inactivated calf serum (Sigma), penicillin/streptomycin, and 0.5 mg/ml G418.
To determine compound efficacy, HCV replicon cells were plated at a density of 10^4 per well in 96-well plates in DMEM media containing 10% FBS. Following incubation overnight, compounds serially diluted in DMSO, or DMSO alone, were added to individual wells to a final DMSO concentration of 0.5%. Cell plates were then incubated at 37° C. for 3 days prior to assaying for cytotoxicity and HCV inhibition.
Plates were then washed two times with PBS and renilla luciferase activity assayed using a Dual-Glo Luciferase Assay System (Promega Corporation, Madison, Wis.) according to the manufacturer's directions. Plates were read on a TopCount NXT Microplate Scintillation and Luminescence Counter (Packard Instrument Company). The 50% effective concentration (EC50) was calculated by using Excel Fit (Version 2.0, Build 30).
Stock solutions, 200 times the desired final assay concentration, were prepared by 3-fold dilution in DMSO prior to addition to cells/media.

SMILES strings stand for the structures. Values joined by “and” are separate entries in the source; they are usually repeats but may differ in a detail not shown here. Equal values may be shown once. Read-outs that look alike come from different tables or passages of the source.

Take `C=C[C@@H]1C[C@]1(NC(=O)[C@@H]1C[C@@H](Oc2ncc(OC)c3ccc(Cl)cc23)CN1C(=O)[C@@H](NC(=O)OC(C)(C)C)C(C)(C)C)C(=O)NS(=O)(=O)C1CC1` [NS3 PI]: the EC50 is 0.825 nM (Hepatitis C virus, 72 h, read-out: NS3 PI EC50); 1.2 nM and 0.705 nM (read-out: NS3 PI EC50).

Regarding `COC(=O)N[C@H](C(=O)N1CCCC1c1ncc(-c2ccc(-c3ccc(-c4cnc(C5CCCN5C(=O)[C@@H](NC(=O)OC)C(C)C)[nH]4)cc3)cc2)[nH]1)C(C)C` (stereo partly shown) [NS5A Inhibitor], the EC50 is 0.002 nM (Hepatitis C virus, 72 h, read-out: NS5A Inhibitor EC50) and 0.003 nM (read-out: NS5A Inhibitor EC50).
